The test addresses Bet BRD4 full length bromo-domain protein (Homo sapiens, UniProt O60885). Nature of the test: Bet bromodomain TR-FRET assay (displacement of acetyl histone peptide). The note with it: Bet BRD4 full length bromodomain protein, 300 nM acetyl histone peptide substrate, read-out: IC50. Type of test: binding. A general note: In TR-FRET formats the signal depends on donor and acceptor labels being close together.

`CN1CCC(NC(=O)c2cc(N(C)S(=O)(=O)c3ccc(F)cc3F)cc3c2NC(=O)C32CCC2)CC1` [Compound 72, 5′-((2,4-Difluoro-N-methylphenyl)sulfonamido)-N-(1-methylpiperidin-4-yl)-2′-oxospiro[cyclobutane-1,3′-indoline]-7′-carboxamide]: the IC50 (usually the point on the concentration scale where inhibition reaches its midpoint) was > 1 µM. The figure for `CN1CCC(Oc2cc(NC(=O)c3ccc(Cl)cc3F)cc3c2NC(=O)C32CCC2)CC1` [compound 224, 4-Chloro-2-fluoro-N-(7′-((1-methylpiperidin-4-yl)oxy)-2′-oxospiro[cyclobutane-1,3′-indolin]-5′-yl)benzamide] is > 1 µM; for `O=C(O)c1cc(NS(=O)(=O)c2ccc(F)cc2F)cc2c1NC(=O)C21CCC1` [Compound 42, 5′-((2,4-difluorophenyl)sulfonamido)-2′-oxospiro[cyclobutane-1,3′-indoline]-7′-carboxylic acid] it is 0.6 to 1 µM. The figure for `CN1CCC(Oc2cc(NC(=O)/C=C/c3ccccc3)cc3c2NC(=O)C32CCC2)CC1` [compound 219, N-(7′-((1-methylpiperidin-4-yl)oxy)-2′-oxospiro[cyclobutane-1,3′-indolin]-5′-yl)cinnamamide] is < 0.6 µM; for `COc1ccccc1S(=O)(=O)Nc1cc(C(C)C2CCCN(C)C2)c2c(c1)C1(CCC1)C(=O)N2` (single isomer, unassigned) [Compound 173, 2-Methoxy-N-(7′-(1-(1-methylpiperidin-3-yl)ethyl)-2′-oxospiro[cyclobutane-1,3′-indolin]-5′-yl)benzenesulfonamide] it is > 1 µM. In the case of `COc1ccccc1S(=O)(=O)Nc1cc(OC2CCC(O)CC2)c2c(c1)C1(CCC1)C(=O)N2` (stereo not shown) [Compound-208, N-(7′-((4-Hydroxycyclohexyl)oxy)-2′-oxospiro[cyclobutane-1,3′-indolin]-5′-yl)-2-methoxybenzenesulfonamide], the IC50 is < 0.6 µM.

With `CN1CCC(Oc2cc(N(C)S(=O)(=O)c3ccc(F)cc3F)cc3c2NC(=O)C32CCC2)CC1` [compound 180, 2,4-Difluoro-N-methyl-N-(7′-((1-methylpiperidin-4-yl)oxy)-2′-oxospiro[cyclobutane-1,3′-indolin]-5′-yl)benzenesulfonamide], the IC50 was < 0.6 µM. With `COc1ccccc1S(=O)(=O)Nc1cc(OCC2CN(C)C2)c2c(c1)C1(CCC1)C(=O)N2` [Compound-190, 2-Methoxy-N-(7′-((1-methylazetidin-3-yl)methoxy)-2′-oxospiro [cyclobutane-1,3′-indolin]-5′-yl)benzenesulfonamide] the figure was < 0.6 µM; with `COc1ccccc1S(=O)(=O)Nc1cc(C(F)c2ccccc2)c2c(c1)C1(CCC1)C(=O)N2` (stereo not shown) [Compound 125, N-(7′-(fluoro(phenyl)methyl)-2′-oxospiro[cyclobutane-1,3′-indolin]-5′-yl)-2-methoxybenzenesulfonamide], < 0.6 µM. The figure for `O=C1Nc2c(-c3ccnc(O)c3)cc(NS(=O)(=O)c3ccc(F)cc3F)cc2C12CCC2` [Compound 100, 2,4-difluoro-N-(7′-(2-hydroxypyridin-4-yl)-2′-oxospiro[cyclobutane-1,3′-indolin]-5′-yl)benzenesulfonamide] is > 1 µM. The figure for `COc1ccccc1S(=O)(=O)Nc1cc(OCCCN(C)C)c2c(c1)C1(CCC1)C(=O)N2` [Compound 164, N-(7′-(3-(dimethylamino)propoxy)-2′-oxospiro[cyclobutane-1,3′-indolin]-5′-yl)-2-methoxybenzenesulfonamide] is < 0.6 µM; for `COc1ccccc1S(=O)(=O)Nc1cc(OC2CCN(C)CC2)c2c(c1Br)C1(CCC1)C(=O)N2` [compound 216, N-(4′-bromo-7′-((1-methylpiperidin-4-yl)oxy)-2′-oxospiro[cyclobutane-1,3′-indolin]-5′-yl)-2-methoxybenzenesulfonamide] it is > 1 µM; for `O=C(NC1CCNCC1)c1cc(NS(=O)(=O)c2ccc(F)cc2F)cc2c1NC(=O)C21CCC1` [Compound 66, 5′-(2,4-Difluorophenylsulfonamido)-2′-oxo-N-(piperidin-4-yl)spiro[cyclobutane-1,3′-indoline]-7′-carboxamide] it is < 0.6 µM.

Source of the values: patent US10336697B2, “Spiro[cyclobutane-1,3′-indolin]-2′-one derivatives as bromodomain inhibitors” (Orion Corporation, priority 2015, dated 2019).
